Converted amounts (≈) assume the structure as drawn. Numbered stars: 1 amine (or outer) side, 2 acyl side, 3 side chain; on linkers, the order of the positions; unused ones are H or OH. Square brackets hold non-standard residues; d marks the D form. Peptide text beside a SMILES is read from it. X1 = CC[C@@H](C)[C@@H](O[*:1])C(=O)[*:2]; NMeVal(β-OH) = CN[C@H](C(=O)O)C(C)(C)O; NMeF = CN[C@@H](Cc1ccccc1)C(=O)O; aIle = CC[C@@H](C)[C@H](N)C(=O)O; NMeV = CN[C@H](C(=O)O)C(C)C
Experiments:
[1] = tested on: Candida parapsilosis; experiment: Antifungal activity against Candida parapsilosis ATCC 22019 (Y-12969) assessed as reduction in fungal viability incubated for 48 hrs by microplate reader analysis; format: functional
[2] = tested on: Mucor circinelloides; experiment: Antifungal activity against Mucor circinelloides 235C7 assessed as reduction in fungal viability incubated for 48 hrs by microplate reader analysis; format: functional
[3] = tested on: Candida albicans; experiment: Antifungal activity against Candida albicans SC5314 assessed as reduction in fungal viability incubated for 48 hrs by microplate reader analysis; format: functional
[4] = tested on: Pichia kudriavzevii; experiment: Antifungal activity against Candida krusei ATCC 6258 (Y-7179) assessed as reduction in fungal growth incubated for 48 hrs by microplate reader analysis; format: functional
[5] = tested on: Paecilomyces lilacinus; experiment: Antifungal activity against Paecilomyces lilacinus 165E10 assessed as reduction in fungal viability incubated for 48 hrs by microplate reader analysis; format: functional, Purpureocillium lilacinum
[6] = tested on: Aspergillus fumigatus; experiment: Antifungal activity against Aspergillus fumigatus NRRL6113 assessed as reduction in fungal viability incubated for 48 hrs by microplate reader analysis; format: functional
[7] = tested on: Hamigera insecticola; experiment: Antifungal activity against Hamigera insecticola NRRL35442 assessed as reduction in fungal growth incubated for 48 hrs by microplate reader analysis; format: functional
[8] = tested on: Aspergillus flavus; experiment: Antifungal activity against Aspergillus flavus NRRL485 assessed as reduction in fungal viability incubated for 48 hrs by microplate reader analysis; format: functional
[9] = tested on: Candida tropicalis; experiment: Antifungal activity against Candida tropicalis ATCC750 (Y-12699) assessed as reduction in fungal viability incubated for 48 hrs by microplate reader analysis; format: functional
[10] = tested on: Pichia kudriavzevii; experiment: Antifungal activity against Candida krusei ATCC 6258 (Y-7179) assessed as reduction in fungal viability incubated for 48 hrs by microplate reader analysis; format: functional
[11] = tested on: Hamigera insecticola; experiment: Antifungal activity against Hamigera insecticola NRRL35442 assessed as reduction in fungal viability incubated for 48 hrs by microplate reader analysis; format: functional
[12] = tested on: Cryptococcus neoformans; experiment: Antifungal activity against Cryptococcus neoformans H99 assessed as reduction in fungal viability incubated for 48 hrs by microplate reader analysis; format: functional
[13] = tested on: Aspergillus fumigatus; experiment: Antifungal activity against Aspergillus fumigatus NRRL5109 assessed as reduction in fungal growth incubated for 48 hrs by microplate reader analysis; format: functional
[14] = tested on: Rhizopus arrhizus; experiment: Antifungal activity against Rhizopus oryzae FGSC 9543 assessed as reduction in fungal viability incubated for 48 hrs by microplate reader analysis; format: functional
[15] = tested on: Aspergillus fumigatus; experiment: Antifungal activity against Aspergillus fumigatus MYA 3627 assessed as reduction in fungal growth incubated for 48 hrs by microplate reader analysis; format: functional
[16] = tested on: Rhizopus arrhizus; experiment: Antifungal activity against Rhizopus oryzae FGSC 9543 assessed as reduction in fungal growth incubated for 48 hrs by microplate reader analysis; format: functional
[17] = tested on: Aspergillus flavus; experiment: Antifungal activity against Aspergillus flavus NRRL485 assessed as reduction in fungal growth incubated for 48 hrs by microplate reader analysis; format: functional
[18] = tested on: Cryptococcus neoformans; experiment: Antifungal activity against Cryptococcus neoformans H99 assessed as reduction in fungal growth incubated for 48 hrs by microplate reader analysis; format: functional
[19] = tested on: Curvularia lunata; experiment: Antifungal activity against Curvularia lunata NRRL6409 assessed as reduction in fungal viability incubated for 48 hrs by microplate reader analysis; format: functional
[20] = tested on: Fusarium solani; experiment: Antifungal activity against Fusarium solani 243G2 assessed as reduction in fungal viability incubated for 48 hrs by microplate reader analysis; format: functional
[21] = tested on: Aspergillus niger; experiment: Antifungal activity against Aspergillus niger FGSC A732 assessed as reduction in fungal viability incubated for 48 hrs by microplate reader analysis; format: functional
[22] = tested on: Candida tropicalis; experiment: Antifungal activity against Candida tropicalis ATCC750 (Y-12699) assessed as reduction in fungal growth incubated for 48 hrs by microplate reader analysis; format: functional
[23] = tested on: Candida albicans; experiment: Antifungal activity against Candida albicans ATCC 10231 assessed as reduction in fungal viability incubated for 48 hrs by microplate reader analysis; format: functional
[24] = tested on: Aspergillus terreus; experiment: Antifungal activity against Aspergillus terreus 191A6 assessed as reduction in fungal viability incubated for 48 hrs by microplate reader analysis; format: functional
[25] = tested on: Candida parapsilosis; experiment: Antifungal activity against Candida parapsilosis ATCC 22019 (Y-12969) assessed as reduction in fungal growth incubated for 48 hrs by microplate reader analysis; format: functional; conditions: Lodderomyces parapsilosis
[26] = tested on: Mucor circinelloides; experiment: Antifungal activity against Mucor circinelloides 235C7 assessed as reduction in fungal growth incubated for 48 hrs by microplate reader analysis; format: functional
[27] = tested on: Aspergillus fumigatus; experiment: Antifungal activity against Aspergillus fumigatus NRRL6113 assessed as reduction in fungal growth incubated for 48 hrs by microplate reader analysis; format: functional
[28] = tested on: Candida albicans; experiment: Antifungal activity against Candida albicans SC5314 assessed as reduction in fungal growth incubated for 48 hrs by microplate reader analysis; format: functional
[29] = tested on: Paecilomyces lilacinus; experiment: Antifungal activity against Paecilomyces lilacinus 165E10 assessed as reduction in fungal growth incubated for 48 hrs by microplate reader analysis; format: functional; conditions: Purpureocillium lilacinum
[30] = tested on: Aspergillus fumigatus; experiment: Antifungal activity against Aspergillus fumigatus NRRL5109 assessed as reduction in fungal viability incubated for 48 hrs by microplate reader analysis; format: functional
[31] = tested on: Candida albicans; experiment: Antifungal activity against Candida albicans ATCC 10231 assessed as reduction in fungal growth incubated for 48 hrs by microplate reader analysis; format: functional
[32] = tested on: Aspergillus terreus; experiment: Antifungal activity against Aspergillus terreus 191A6 assessed as reduction in fungal growth incubated for 48 hrs by microplate reader analysis; format: functional
[33] = tested on: Fusarium solani; experiment: Antifungal activity against Fusarium solani 243G2 assessed as reduction in fungal growth incubated for 48 hrs by microplate reader analysis; format: functional
[34] = tested on: Aspergillus fumigatus; experiment: Antifungal activity against Aspergillus fumigatus MYA 3627 assessed as reduction in fungal viability incubated for 48 hrs by microplate reader analysis; format: functional
[35] = tested on: Aspergillus niger; experiment: Antifungal activity against Aspergillus niger FGSC A732 assessed as reduction in fungal growth incubated for 48 hrs by microplate reader analysis; format: functional
[36] = tested on: Curvularia lunata; experiment: Antifungal activity against Curvularia lunata NRRL6409 assessed as reduction in fungal growth incubated for 48 hrs by microplate reader analysis; format: functional

Compound: CC[C@@H](C)[C@@H]1NC(=O)[C@@H]2CCCN2C(=O)[C@H](Cc2ccccc2)N(C)C(=O)[C@H](Cc2ccccc2)NC(=O)[C@H](C(C)C)N(C)C(=O)[C@@H]([C@H](C)CC)OC(=O)[C@H](C(C)(C)O)N(C)C(=O)[C@H](CC(C)C)NC(=O)[C@H](C(C)C)N(C)C1=O [AUREOBASIDIN A] (cyclo(F[NMeF]P[aIle][NMeV]L[NMeVal(β-OH)][X1][NMeV]))
- MFC<=99.9 [1]: 2.5 µM (≈ 2.75 µg/mL)
- MFC<=99.9 [2]: >10 µM
- MFC<=99.9 [3]: 0.6 µM (≈ 0.661 µg/mL)
- MFC [4]: 2.5 µM (≈ 2.75 µg/mL)
- MIC80 [4]: 1.3 µM (≈ 1.43 µg/mL)
- MFC<=99.9 [5]: >10 µM
- MFC<=99.9 [6]: >10 µM
- MFC [7]: > 10 µM
- MIC80 [7]: 0.6 µM (≈ 0.661 µg/mL)
- MFC<=99.9 [8]: >10 µM
- MFC<=99.9 [9]: 0.6 µM (≈ 0.661 µg/mL)
- MFC<=99.9 [10]: 2.5 µM (≈ 2.75 µg/mL)
- MFC<=99.9 [11]: >10 µM
- MFC<=99.9 [12]: 2.5 µM (≈ 2.75 µg/mL)
- MFC [13]: > 10 µM
- MIC80 [13]: > 10 µM
- MFC<=99.9 [14]: >10 µM
- MFC [15]: > 10 µM
- MIC80 [15]: > 10 µM
- MFC [16]: > 10 µM
- MIC80 [16]: > 10 µM
- MFC [17]: > 10 µM
- MIC80 [17]: > 10 µM
- MFC [18]: 2.5 µM (≈ 2.75 µg/mL)
- MIC80 [18]: 2.5 µM (≈ 2.75 µg/mL)
- MFC<=99.9 [19]: 1.3 µM (≈ 1.43 µg/mL)
- MFC<=99.9 [20]: >10 µM
- MFC<=99.9 [21]: >10 µM
- MFC [22]: 0.6 µM (≈ 0.661 µg/mL)
- MIC80 [22]: 0.6 µM (≈ 0.661 µg/mL)
- MFC<=99.9 [23]: 2.5 µM (≈ 2.75 µg/mL)
- MFC<=99.9 [24]: >10 µM
- MFC [25]: 2.5 µM (≈ 2.75 µg/mL)
- MIC80 [25]: 1.3 µM (≈ 1.43 µg/mL)
- MFC [26]: > 10 µM
- MIC80 [26]: > 10 µM
- MFC [27]: > 10 µM
- MIC80 [27]: > 10 µM
- MFC [28]: 0.6 µM (≈ 0.661 µg/mL)
- MIC80 [28]: 0.3 µM (≈ 0.33 µg/mL)
- MFC [29]: > 10 µM
- MIC80 [29]: 5 µM (≈ 5.51 µg/mL)
- MFC<=99.9 [30]: >10 µM
- MFC [31]: 2.5 µM (≈ 2.75 µg/mL)
- MIC80 [31]: 0.6 µM (≈ 0.661 µg/mL)
- MFC [32]: > 10 µM
- MIC80 [32]: 2.5 µM (≈ 2.75 µg/mL)
- MFC [33]: > 10 µM
- MIC80 [33]: 5 µM (≈ 5.51 µg/mL)
- MFC<=99.9 [34]: >10 µM
- MFC [35]: > 10 µM
- MIC80 [35]: 5 µM (≈ 5.51 µg/mL)
- MFC [36]: 1.3 µM (≈ 1.43 µg/mL)
- MIC80 [36]: 0.6 µM (≈ 0.661 µg/mL)

Compound: CC[C@H](C)C[C@H](C)CCCCCCCCC(=O)N[C@H]1C[C@@H](O)[C@@H](NCCN)NC(=O)[C@@H]2[C@@H](O)CCN2C(=O)[C@H]([C@H](O)CCN)NC(=O)[C@H]([C@H](O)[C@@H](O)c2ccc(O)cc2)NC(=O)[C@@H]2C[C@@H](O)CN2C(=O)[C@H]([C@@H](C)O)NC1=O [CASPOFUNGIN]
- MFC<=99.9 [1]: 1.3 µM (≈ 1.42 µg/mL)
- MFC<=99.9 [2]: >10 µM
- MFC<=99.9 [3]: 0.63 µM (≈ 0.689 µg/mL)
- MFC [4]: 0.3 µM (≈ 0.328 µg/mL)
- MIC80 [4]: 0.2 µM (≈ 0.219 µg/mL)
- MFC<=99.9 [5]: >10 µM
- MFC<=99.9 [6]: >10 µM
- MFC [7]: > 10 µM
- MIC80 [7]: 0.1 µM (≈ 0.109 µg/mL)
- MFC<=99.9 [8]: >10 µM
- MFC<=99.9 [9]: 0.2 µM (≈ 0.219 µg/mL)
- MFC<=99.9 [10]: 0.3 µM (≈ 0.328 µg/mL)
- MFC<=99.9 [11]: >10 µM
- MFC<=99.9 [12]: >10 µM
- MFC [13]: > 10 µM
- MIC80 [13]: > 10 µM
- MFC<=99.9 [14]: >10 µM
- MFC [15]: > 10 µM
- MIC80 [15]: 0.1 µM (≈ 0.109 µg/mL)
- MFC [16]: > 10 µM
- MIC80 [16]: > 10 µM
- MFC [17]: > 10 µM
- MIC80 [17]: > 10 µM
- MFC [18]: > 10 µM
- MIC80 [18]: > 10 µM
- MFC<=99.9 [19]: 5 µM (≈ 5.47 µg/mL)
- MFC<=99.9 [20]: >10 µM
- MFC<=99.9 [21]: >10 µM
- MFC [22]: 0.2 µM (≈ 0.219 µg/mL)
- MIC80 [22]: 0.03 µM (≈ 0.0328 µg/mL)
- MFC<=99.9 [23]: 5 µM (≈ 5.47 µg/mL)
- MFC<=99.9 [24]: >10 µM
- MFC [25]: 1.3 µM (≈ 1.42 µg/mL)
- MIC80 [25]: 0.3 µM (≈ 0.328 µg/mL)
- MFC [26]: > 10 µM
- MIC80 [26]: > 10 µM
- MFC [27]: > 10 µM
- MIC80 [27]: > 10 µM
- MFC [28]: 0.63 µM (≈ 0.689 µg/mL)
- MIC80 [28]: 0.03 µM (≈ 0.0328 µg/mL)
- MFC [29]: > 10 µM
- MIC80 [29]: > 10 µM
- MFC<=99.9 [30]: >10 µM
- MFC [31]: 5 µM (≈ 5.47 µg/mL)
- MIC80 [31]: 0.03 µM (≈ 0.0328 µg/mL)
- MFC [32]: > 10 µM
- MIC80 [32]: 0.13 µM (≈ 0.142 µg/mL)
- MFC [33]: > 10 µM
- MIC80 [33]: 0.2 µM (≈ 0.219 µg/mL)
- MFC<=99.9 [34]: >10 µM
- MFC [35]: > 10 µM
- MIC80 [35]: 0.1 µM (≈ 0.109 µg/mL)
- MFC [36]: 5 µM (≈ 5.47 µg/mL)
- MIC80 [36]: 5 µM (≈ 5.47 µg/mL)

Reference: ChEMBL document CHEMBL5390204, “Persephacin Is a Broad-Spectrum Antifungal Aureobasidin Metabolite That Overcomes Intrinsic Resistance in Aspergillus fumigatus” (J Nat Prod, 2023)
